# Tested on: Treg cells (CD4+CD25highFoxP3+)
# Assay: Antigen-specific tolerogenic dendritic cells (tDC) activity on Treg cell development
# Format: cell-based, OTII mice
# Conditions: FIG. 3; tDC cultured with OTII T cells 4-5 days, flow cytometry
# Experimental: The assay included the use of OTII mice which have a transgenic T cell receptor specific for an immune-dominant ovalbumin peptide (323-339). In order to create antigen-specific tDCs, CD11c^+ splenocytes were isolated, and the ovalbumin peptide (323-339) added in vitro at 1 μg/ml or no antigen. Soluble or nanocarrier-encapsulated rapamycin was then added to the DCs for 2 hours which were then washed extensively to remove free rapamycin from the culture. Purified responder CD4^+CD25^− cells were isolated from OTII mice and added to tDC at a 10:1 T to DC ratio. The mixture of tDC and OTII T cells were then cultured for 4-5 days, and the frequency of Treg cells (CD4^+CD25highFoxP3^+) were analyzed by flow cytometry as shown in FIG. 1. Regions were selected based on isotype controls.
# Free rapamycin or synthetic nanocarriers containing rapamycin were combined with free soluble Ovalbumin (323-339) to evaluate induction of tDC (FIG. 2). […] Briefly, antigen specific tDC were obtained by isolating dendritic cells (CD11c^+ splenocytes) and culturing them in combination with the Ovalbumin (323-339) peptide plus soluble or nanocarrier encapsulated rapamycin (Synthetic Nanocarrier #s 13, 14, 15 and 16) for 2 hours followed by extensive washing. […] The mixture of tDC and OTII T cells were then cultured for 4-5 days, and the frequency of Treg cells (CD4^+CD25highFoxP3^+) were analyzed by flow cytometry.
smiles,measurement,value
CO[C@H]1C[C@@H]2CC[C@@H](C)[C@@](O)(O2)C(=O)C(=O)N2CCCC[C@H]2C(=O)O[C@H]([C@H](C)C[C@@H]2CC[C@@H](O)[C@H](OC)C2)CC(=O)[C@H](C)/C=C(\C)[C@@H](O)[C@@H](OC)C(=O)[C@H](C)C[C@H](C)/C=C/C=C/C=C/1C [rapamycin],induction of FoxP3 expressing cells,2.7%

# Reference: patent US11235057B2, “Methods for providing polymeric synthetic nanocarriers for generating antigen-specific tolerance immune responses” (Selecta Biosciences, Inc., priority 2011, dated 2022)
